Measurements from the NIST ThermoML archive (doi:10.1016/j.fluid.2007.04.014).

Tests used:
[1] = Crystal; Closed cell (Static) method
[2] = Solid-liquid equilibrium temperature; conditions: Crystal, Closed cell (Static) method

CCCCCCCCCCCCCCCCC [heptadecane]
Conditions | Normal melting temperature [°C]
[1] | 22.20

[2]
Conditions | Solid-liquid equilibrium temperature [K]
20800 kPa | 299.75
40100 kPa | 304.05
60100 kPa | 308.3
80100 kPa | 312.4
99300 kPa | 316.5
